Results reported in patent US4012394A, “Indole derivatives” (Labaz, priority 1973, dated 1977).

Test system: vena cave inferior of the rat (film of fibrin)
Assay: fibrinolytic activity, procedure of TODD adapted to the vena cave inferior of the rat
Type: in vivo
Settings: 100 mg/kg, rat
Procedure: Forschumg, 20, 358, 1970. […]
Male rats weighing 150 to 200 g. and having fasted for 24 hours were divided into two groups. The animals of one group were given the above-indicated dose of the compound to be tested. […] After 40 minutes, the treated animals were sacrificed simultaneously with the control animals, the veins immediately removed, rinsed with physiological salt solution, frozen and cut into pieces having a thickness of 20 microns. On each piece, a film of fibrin was formed by the application of a bovine fibrinogenous solution, rich in plasminogen, and of a thrombin solution.
All the preparations were then fixed with a 10% solution of neutral formol, stained with haematoxylin of Harris and covered with gelatine.
Value = 0: The film of fibrin was intact.
Value = 1: The lysis zones in the endothelium were disseminated.
Value = 2:The lysis zones were larger and more or less joined.
Value = 3:The fibrin in contact with the endothelium was almost completely decomposed.
The fibrinolytic index represents the average of the values of the reactions obtained for each incubation.

| Structure (SMILES) | fibrinolytic index [%] |
| --- | --- |
| CCCc1[nH]c2ccccc2c1C(=O)c1ccccn1 [(2-n-propyl-3-indolyl)(2-pyridyl) ketone, reference compound] | 2 |
| O=C(c1cccnc1)c1c(-c2ccccc2)[nH]c2ccccc12 [(2-phenyl-3-indolyl)(3-pyridyl) ketone, reference compound] | 20 |

Same assay, conditions: Rattus norvegicus, ip, 40 min, read-out: Fibrinolytic index in % (average increase in fibrinolytic effect compared with control animals)

| Structure (SMILES) | change in vivo at 10 mg/kg [%] |
| --- | --- |
| CN(C)CCn1c(-c2ccc(F)cc2)c(C(=O)c2cccnc2)c2ccccc21 [[1-β -dimethylaminoethyl-2-(4-fluoro-phenyl)-3-indolyl] (3-pyridyl) ketone] | 90 |
| COc1ccc(-c2c(C(=O)c3ccncc3)c3ccccc3n2CCN(C)C)cc1 [[1-β-dimethylaminoethyl-2-(4-methoxy-phenyl)-3-indolyl] (4-pyridyl) ketone] | 42 |
| CN(C)CCCn1c(-c2ccccc2)c(C(=O)c2cccnc2)c2ccccc21 [(1-γ-dimethylaminopropyl-2-phenyl-3-indolyl) (3-pyridyl) ketone] | 46 |
| CN(C)CCn1c(-c2ccc(F)cc2)c(C(=O)c2ccncc2)c2ccccc21 [[1-β-dimethylaminoethyl-2-(4-fluoro-phenyl)-3-indolyl] (4-pyridyl) ketone] | 50 |
| CC(C)c1c(C(=O)c2cccnc2)c2ccccc2n1CCCN1CCCCC1 [(1-γ-piperidinopropyl-2-isopropyl-3-indolyl) (3-pyridyl) ketone] | 18 |
| CCCn1c(C(C)C)c(C(=O)c2cccnc2)c2ccccc21 [n-propyl / isopropyl / 3-pyridyl, (1-n-propyl-2-isopropyl-3-indolyl) (3-pyridyl) ketone] | 25 |
| CN(C)CCn1c(-c2ccccc2)c(C(=O)c2ccccn2)c2ccccc21 [(1-β-dimethylaminoethyl-2-phenyl-3-indolyl) (2-pyridyl) ketone] | 50 |
| CN(C)CCn1c(-c2ccc(Cl)cc2)c(C(=O)c2cccnc2)c2ccccc21 [[1-β-dimethylaminoethyl-2-(4-chloro-phenyl)-3-indolyl] (3-pyridyl) ketone] | 40 |
| CC(C)c1c(C(=O)c2ccncc2)c2ccccc2n1CCN(C)C [(1-β-dimethylaminoethyl-2-isopropyl-3-indolyl) (4-pyridyl) ketone] | 44 |
| CC(C)c1c(C(=O)c2cccnc2)c2ccccc2n1CCN(C)C [(1-β-dimethylaminoethyl-2-isopropyl-3-indolyl) (3-pyridyl) ketone] | 24 |
| CN(C)CCn1c(-c2ccc(Cl)cc2)c(C(=O)c2ccncc2)c2ccccc21 [[1-β-dimethylaminoethyl-2-(4-chloro-phenyl)-3-indolyl] (4-pyridyl) ketone] | 42 |
| CC(C)c1c(C(=O)c2ccccn2)c2ccccc2n1CCCN1CCCCC1 [(1-γ-piperidinopropyl-2-isopropyl-3-indolyl) (2-pyridyl) ketone] | 123 |
| CC(C)c1c(C(=O)c2cccnc2)c2ccccc2n1CCN1CCCCC1 [piperidinoethyl / isopropyl / 3-pyridyl, (1-β-piperidinoethyl-2-isopropyl 3-indolyl) (3-pyridyl) ketone] | 77 |
| CN(C)CCn1c(-c2ccccc2)c(C(=O)c2cccnc2)c2ccccc21 [(1-β-dimethylaminoethyl-2-phenyl-3-indolyl) (3-pyridyl) ketone] | 96 |
| CC(C)c1c(C(=O)c2ccncc2)c2ccccc2n1CCCN(C)C [(1-γ-dimethylaminopropyl-2-isopropyl-3-indolyl) (4-pyridyl) ketone] | 30 |
| CN(C)CCCn1c(-c2ccc(F)cc2)c(C(=O)c2cccnc2)c2ccccc21 [[1-γ-dimethylaminopropyl-2-(4-fluoro-phenyl)-3-indolyl] (3-pyridyl) ketone] | 75 |
| CC(C)c1c(C(=O)c2ccccn2)c2ccccc2n1CCN(C)C [(1-β-dimethylaminoethyl-2-isopropyl-3-indolyl) (2-pyridyl) ketone] | 21 |
| CCCc1c(C(=O)c2ccccn2)c2ccccc2n1CCN(C)C [(1-β-dimethylaminoethyl-2-n-propyl-3-indolyl) (2-pyridyl) ketone] | 50 |
| CN(C)CCCn1c(-c2ccccc2)c(C(=O)c2ccccn2)c2ccccc21 [(1-γ-dimethylaminopropyl-2-phenyl-3-indolyl) (2-pyridyl) ketone] | 46 |
| CCCc1c(C(=O)c2ccccn2)c2ccccc2n1CCCN(C)C [(1-γ-dimethylaminopropyl-2-n-propyl-3-indolyl) (2-pyridyl) ketone] | 66 |
| COc1ccc(-c2c(C(=O)c3ccccn3)c3ccccc3n2CCN(C)C)cc1 [[1-β-dimethylaminoethyl-2-(4-methoxy-phenyl)-3-indolyl] (2-pyridyl) ketone] | 45 |
| O=C(c1ccncc1)c1c(-c2ccc(Cl)cc2)n(CCN2CCCCC2)c2ccccc12 [[1-β-piperidinoethyl-2-(4-chloro-phenyl)-3-indolyl] (4-pyridyl) ketone] | 50 |
| COc1ccc(-c2c(C(=O)c3cccnc3)c3ccccc3n2CCN(C)C)cc1 [[1-β-dimethylaminoethyl-2-(4-methoxy-phenyl)-3-indolyl] (3-pyridyl) ketone] | 133 |

Same assay, conditions: ip, 40 min; 10 mg/kg, intraperitoneal, rat, 40 minutes; read-out: Fibrinolytic index in % (average increase in fibrinolytic effect compared with control animals)

| Structure (SMILES) | change in vivo at 10 mg/kg [%] |
| --- | --- |
| CC(C)c1c(C(=O)c2ccncc2)c2ccccc2n1C [methyl / isopropyl / 4-pyridyl, (1-methyl-2-isopropyl-3-indolyl) (4-pyridyl) ketone] | 165 |
| CC(C)c1[nH]c2ccccc2c1C(=O)c1ccncc1 [(2-isopropyl-3-indolyl)(4-pyridyl) ketone, reference compound] | 10 |
| CC(C)c1c(C(=O)c2ccccn2)c2ccccc2n1C [methyl / isopropyl / 2-pyridyl, (1-methyl-2-isopropyl-3-indolyl) (2-pyridyl) ketone] | 105 |
| CC(C)c1[nH]c2ccccc2c1C(=O)c1cccnc1 [(2-isopropyl-3-indolyl) (3-pyridyl) ketone, reference compound] | 5 |

Test system: carragheenin oedema
Assay: JANSSEN test, carragheenin-induced paw oedema in the rat
Type: in vivo
Settings: 3 h; oral, rat, one hour before carragheenin; oedema measured three hours after; read-out: AD50 (amount of compound required to ensure a 50% reduction of the oedema)
Procedure: The anti-inflammatory activity of the compounds of the invention was determined on the rat by means of the JANSSEN test involving the use of carragheenin as inflammatory agent.
Into the plantar aponeurosis of the back paws of a group of female rats 0.05 ml. of a 1 % suspension of carragheenin was injected one hour after the compound to be tested had been administered by oral route. The size of the paw was measured by plethysmograph both before and three hours after administration of the carragheenin. The anti-inflammatory activity was calculated as the percentage of reduction of the resulting oedema as compared with control animals which had received the same dose of carragheenin without any anti-inflammatory agent. The AD50 was taken as the amount of compound required to ensure a 50% reduction of the oedema.

| Structure (SMILES) | ED50 [mg/kg] |
| --- | --- |
| CCCCC1C(=O)N(c2ccccc2)N(c2ccccc2)C1=O [Phenylbutazone] | 22 |

Same assay, conditions: Rattus norvegicus, po, 3 h, read-out: AD50 (amount of compound required to ensure a 50% reduction of the oedema)

| Structure (SMILES) | ED50 [mg/kg] |
| --- | --- |
| CC(=O)Oc1ccccc1C(=O)O [Acetylsalicylic acid] | 110 |
| COc1ccc2c(c1)c(CC(=O)O)c(C)n2C(=O)c1ccc(Cl)cc1 [Indomethacin] | 4 |
| CC(C)c1c(C(=O)c2cccnc2)c2ccccc2n1C [Compound A, (1-methyl-2-isopropyl-3-indolyl) (3-pyridyl) ketone] | 15 |

Same assay, conditions: rat, in vivo

| Structure (SMILES) | anti-inflammatory activity (in words) |
| --- | --- |
| CC(=O)Oc1ccccc1C(=O)O [Acetylsalicylic acid] | less active than Compound A |
| COc1ccc2c(c1)c(CC(=O)O)c(C)n2C(=O)c1ccc(Cl)cc1 [Indomethacin] | more powerful anti-inflammatory agent than Compound A |
| CCCCC1C(=O)N(c2ccccc2)N(c2ccccc2)C1=O [Phenylbutazone] | less active than Compound A |

Test system: not listed separately
Assay: acute toxicity in the rat
Settings: rat, in vivo, ip
Procedure: (§1) A certain number of toxicity tests were also carried out on rats and mice and in particular acute toxicity tests.

| Structure (SMILES) | LD50 [mg/kg] |
| --- | --- |
| CC(C)c1c(C(=O)c2cccnc2)c2ccccc2n1C [Compound A, (1-methyl-2-isopropyl-3-indolyl) (3-pyridyl) ketone] | 425 |

Same assay, conditions: rat, in vivo, po

| Structure (SMILES) | LD50 [mg/kg] |
| --- | --- |
| COc1ccc2c(c1)c(CC(=O)O)c(C)n2C(=O)c1ccc(Cl)cc1 [Indomethacin] | 22.5 |
| CC(C)c1c(C(=O)c2cccnc2)c2ccccc2n1CCCN(C)C [(1-γ-dimethylaminopropyl-2-isopropyl-3-indolyl) (3-pyridyl) ketone] | > 2000 |
| CC(C)c1c(C(=O)c2cccnc2)c2ccccc2n1C [Compound A, (1-methyl-2-isopropyl-3-indolyl) (3-pyridyl) ketone] | 2400 |

Test system: rats
Assay: acute toxicity in the rat
Settings: compared with indomethacin and/or phenylbutazone
Procedure: as §1

| Structure (SMILES) | toxicity (in words) |
| --- | --- |
| CC(C)c1c(C(=O)c2cccnc2)c2ccccc2n1C [Compound A, (1-methyl-2-isopropyl-3-indolyl) (3-pyridyl) ketone] | less toxic than both indomethacin and phenylbutazone |

Test system: not listed separately
Assay: acute toxicity in the mouse
Settings: in vivo, ip, intraperitoneal route, seven days of observation

| Structure (SMILES) | LD50 at 168 h [mg/kg] |
| --- | --- |
| CC(C)c1c(C(=O)c2cccnc2)c2ccccc2n1C [Compound A, (1-methyl-2-isopropyl-3-indolyl) (3-pyridyl) ketone] | 3250 |

Same assay, conditions: in vivo, po, intragastric route, seven days of observation

| Structure (SMILES) | LD50 at 168 h [mg/kg] |
| --- | --- |
| CC(C)c1c(C(=O)c2cccnc2)c2ccccc2n1C [Compound A, (1-methyl-2-isopropyl-3-indolyl) (3-pyridyl) ketone] | 900 |

Test system: not listed separately
Assay: in vivo
Settings: rat, in vivo
Procedure: (§2) As another means of evaluating the utility of the compounds of the invention as anti-inflammatory agents in comparison with the three substances indicated above, trials were carried out on fasting rats in order to determine the degree to which the compounds studied produced gastric ulcers in the animals so treated.

| Structure (SMILES) | selectivity ratio |
| --- | --- |
| CC(=O)Oc1ccccc1C(=O)O [Acetylsalicylic acid] | 2 |
| COc1ccc2c(c1)c(CC(=O)O)c(C)n2C(=O)c1ccc(Cl)cc1 [Indomethacin] | 1.3 |
| CC(C)c1c(C(=O)c2cccnc2)c2ccccc2n1C [Compound A, (1-methyl-2-isopropyl-3-indolyl) (3-pyridyl) ketone] | 20 |

Test system: gastric ulcers
Assay: in vivo
Settings: compared with indomethacin, phenylbutazone or acetylsalicylic acid
Procedure: as §2

| Structure (SMILES) | distance of irritant dose from anti-inflammatory dose (in words) |
| --- | --- |
| CC(C)c1c(C(=O)c2cccnc2)c2ccccc2n1C [Compound A, (1-methyl-2-isopropyl-3-indolyl) (3-pyridyl) ketone] | irritant dose is much farther removed from the anti-inflammatory dose |

Same assay, conditions: fasting rats, gastric ulcers, times as irritant as Compound A

| Structure (SMILES) | irritant (ulcer-producing) action relative to Compound A |
| --- | --- |
| CC(=O)Oc1ccccc1C(=O)O [Acetylsalicylic acid] | one-and-a-half |
| COc1ccc2c(c1)c(CC(=O)O)c(C)n2C(=O)c1ccc(Cl)cc1 [Indomethacin] | sixty |
